Source: ChEMBL document CHEMBL5241126, “Design and synthesis of 6-methylpyridin-2-one derivatives as novel and potent GluN2A positive allosteric modulators for the treatment of cognitive impairment” (Bioorg Med Chem, 2023)

What was measured:
[1] = 1-Octanol/aqueous buffer partition coefficient, logD of the compound at pH 7.4 by chromatographic method based UV-visible detector; type: physicochemical
[2] = Metabolic stability in rat liver microsomes assessed as clearance at 1 uM incubated for 15 to 30 mins in the presence of NADPH generating system by LC-MS/MS analysis; type: ADME, Microsome; conditions: time 15-30 min, read-out: CLH
Glutamate receptor 2 = Glutamate receptor 2 (Homo sapiens, UniProt P42262); experiment: Displacement of [3H]-HBT1 from His-tagged GluA2-AMPA receptor LBD (unknown origin) in presence of glutamate by scintillation proximity assay
Glutamate receptor 2, sequence (P42262 whole entry, the tested form may be a part): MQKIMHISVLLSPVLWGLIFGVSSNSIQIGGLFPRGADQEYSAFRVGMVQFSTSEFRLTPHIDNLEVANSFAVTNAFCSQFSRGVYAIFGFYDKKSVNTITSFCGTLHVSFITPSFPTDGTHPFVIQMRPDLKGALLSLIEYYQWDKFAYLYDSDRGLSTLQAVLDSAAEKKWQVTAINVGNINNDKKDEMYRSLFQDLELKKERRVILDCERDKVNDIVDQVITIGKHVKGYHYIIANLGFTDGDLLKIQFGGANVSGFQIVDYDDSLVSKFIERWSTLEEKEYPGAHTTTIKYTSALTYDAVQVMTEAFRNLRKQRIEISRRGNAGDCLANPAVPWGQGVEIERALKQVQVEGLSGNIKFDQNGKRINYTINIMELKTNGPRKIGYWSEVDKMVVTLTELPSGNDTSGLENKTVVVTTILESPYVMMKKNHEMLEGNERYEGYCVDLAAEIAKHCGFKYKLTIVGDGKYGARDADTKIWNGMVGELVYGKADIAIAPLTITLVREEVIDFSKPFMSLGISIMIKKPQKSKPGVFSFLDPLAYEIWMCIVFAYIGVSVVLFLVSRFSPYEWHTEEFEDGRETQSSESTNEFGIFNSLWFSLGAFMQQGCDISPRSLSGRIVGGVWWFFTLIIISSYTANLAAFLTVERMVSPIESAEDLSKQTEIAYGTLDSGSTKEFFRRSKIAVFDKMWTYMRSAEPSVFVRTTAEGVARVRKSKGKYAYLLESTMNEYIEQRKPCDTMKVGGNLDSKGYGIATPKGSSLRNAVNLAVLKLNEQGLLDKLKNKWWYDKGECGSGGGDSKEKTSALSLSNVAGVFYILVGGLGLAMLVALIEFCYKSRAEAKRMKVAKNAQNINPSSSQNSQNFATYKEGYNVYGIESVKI

[3] = Metabolic stability in human liver microsomes assessed as clearance at 1 uM incubated for 15 to 30 mins in the presence of NADPH generating system by LC-MS/MS analysis; type: ADME, Microsome; conditions: time 15-30 min, read-out: CLH
[4] = target: Glutamate receptor ionotropic, NMDA 2A (Homo sapiens, UniProt Q05586+Q12879); experiment: Positive allosteric modulator activity at GluN2A NMDA receptor (unknown origin) expressed in CHO cells co-expressing GluN1a in the presence of L-glutamate and glycine by Ca2+ influx assay; type: cell-based
Glutamate receptor ionotropic, NMDA 2A, sequence (Q12879 whole entry, one chain of several): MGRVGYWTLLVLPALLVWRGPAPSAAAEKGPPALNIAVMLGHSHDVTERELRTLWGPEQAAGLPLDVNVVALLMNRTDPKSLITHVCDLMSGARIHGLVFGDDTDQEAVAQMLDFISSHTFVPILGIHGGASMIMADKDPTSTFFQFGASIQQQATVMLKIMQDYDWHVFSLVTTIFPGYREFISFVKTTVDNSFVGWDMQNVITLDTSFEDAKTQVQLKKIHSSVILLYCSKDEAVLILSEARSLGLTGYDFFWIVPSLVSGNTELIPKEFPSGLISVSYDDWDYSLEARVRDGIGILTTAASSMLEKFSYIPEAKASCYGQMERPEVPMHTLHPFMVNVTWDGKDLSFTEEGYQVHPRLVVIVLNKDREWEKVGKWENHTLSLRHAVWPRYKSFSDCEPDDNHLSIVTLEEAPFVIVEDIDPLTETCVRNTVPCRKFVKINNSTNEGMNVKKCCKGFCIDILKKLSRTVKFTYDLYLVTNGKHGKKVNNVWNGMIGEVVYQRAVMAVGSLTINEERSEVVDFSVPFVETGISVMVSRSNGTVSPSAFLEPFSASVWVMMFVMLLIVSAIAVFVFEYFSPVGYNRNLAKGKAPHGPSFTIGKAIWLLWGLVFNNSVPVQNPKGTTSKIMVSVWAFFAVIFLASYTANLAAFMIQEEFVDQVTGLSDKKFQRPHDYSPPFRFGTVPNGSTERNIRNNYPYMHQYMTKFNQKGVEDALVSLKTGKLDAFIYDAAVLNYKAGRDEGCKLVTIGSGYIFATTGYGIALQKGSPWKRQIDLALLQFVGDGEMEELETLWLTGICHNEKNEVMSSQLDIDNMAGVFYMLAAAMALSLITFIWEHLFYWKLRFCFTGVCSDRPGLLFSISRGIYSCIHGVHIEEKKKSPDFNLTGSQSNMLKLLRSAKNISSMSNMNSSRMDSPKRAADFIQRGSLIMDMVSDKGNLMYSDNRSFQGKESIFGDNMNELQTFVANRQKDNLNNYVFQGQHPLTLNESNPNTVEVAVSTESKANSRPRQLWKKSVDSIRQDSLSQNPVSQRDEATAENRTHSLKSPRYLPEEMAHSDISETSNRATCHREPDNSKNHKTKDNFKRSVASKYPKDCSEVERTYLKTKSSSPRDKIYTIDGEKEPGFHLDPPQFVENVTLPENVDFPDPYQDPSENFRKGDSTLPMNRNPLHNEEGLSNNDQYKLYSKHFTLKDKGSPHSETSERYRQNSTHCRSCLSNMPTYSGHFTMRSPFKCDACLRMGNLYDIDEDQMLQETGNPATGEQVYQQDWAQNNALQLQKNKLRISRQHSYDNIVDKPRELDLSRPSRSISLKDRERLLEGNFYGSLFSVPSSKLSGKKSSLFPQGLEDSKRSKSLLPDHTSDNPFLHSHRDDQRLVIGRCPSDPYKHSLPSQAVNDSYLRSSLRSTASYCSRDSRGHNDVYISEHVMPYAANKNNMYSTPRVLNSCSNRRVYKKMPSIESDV

[5] = Drug concentration in Sprague-Dawley rat brain at 10 mg/kg, po measured after 2 hrs by LC-MS/MS analysis; type: ADME, organism-based; conditions: read-out: Ct
[6] = Drug concentration in Sprague-Dawley rat plasma at 10 mg/kg, po measured after 2 hrs by LC-MS/MS analysis; type: ADME, organism-based
[7] = Drug concentration in Sprague-Dawley rat plasma at 10 mg/kg, po measured after 1 hrs by LC-MS/MS analysis; type: ADME, organism-based
[8] = Drug concentration in Sprague-Dawley rat plasma at 10 mg/kg, po measured after 0.5 hrs by LC-MS/MS analysis; type: ADME, organism-based
[9] = Drug concentration in Sprague-Dawley rat brain at 10 mg/kg, po measured after 0.5 hrs by LC-MS/MS analysis; type: ADME, organism-based; conditions: read-out: Ct
[10] = target: Glutamate receptor ionotropic, NMDA 2C (Homo sapiens, UniProt Q05586+Q14957); experiment: Positive allosteric modulator activity at GluN2C NMDA receptor (unknown origin) expressed in CHO cells co-expressing GluN1a in the presence of L-glutamate and glycine by Ca2+ influx assay; type: cell-based
Glutamate receptor ionotropic, NMDA 2C, sequence (Q14957 whole entry, one chain of several): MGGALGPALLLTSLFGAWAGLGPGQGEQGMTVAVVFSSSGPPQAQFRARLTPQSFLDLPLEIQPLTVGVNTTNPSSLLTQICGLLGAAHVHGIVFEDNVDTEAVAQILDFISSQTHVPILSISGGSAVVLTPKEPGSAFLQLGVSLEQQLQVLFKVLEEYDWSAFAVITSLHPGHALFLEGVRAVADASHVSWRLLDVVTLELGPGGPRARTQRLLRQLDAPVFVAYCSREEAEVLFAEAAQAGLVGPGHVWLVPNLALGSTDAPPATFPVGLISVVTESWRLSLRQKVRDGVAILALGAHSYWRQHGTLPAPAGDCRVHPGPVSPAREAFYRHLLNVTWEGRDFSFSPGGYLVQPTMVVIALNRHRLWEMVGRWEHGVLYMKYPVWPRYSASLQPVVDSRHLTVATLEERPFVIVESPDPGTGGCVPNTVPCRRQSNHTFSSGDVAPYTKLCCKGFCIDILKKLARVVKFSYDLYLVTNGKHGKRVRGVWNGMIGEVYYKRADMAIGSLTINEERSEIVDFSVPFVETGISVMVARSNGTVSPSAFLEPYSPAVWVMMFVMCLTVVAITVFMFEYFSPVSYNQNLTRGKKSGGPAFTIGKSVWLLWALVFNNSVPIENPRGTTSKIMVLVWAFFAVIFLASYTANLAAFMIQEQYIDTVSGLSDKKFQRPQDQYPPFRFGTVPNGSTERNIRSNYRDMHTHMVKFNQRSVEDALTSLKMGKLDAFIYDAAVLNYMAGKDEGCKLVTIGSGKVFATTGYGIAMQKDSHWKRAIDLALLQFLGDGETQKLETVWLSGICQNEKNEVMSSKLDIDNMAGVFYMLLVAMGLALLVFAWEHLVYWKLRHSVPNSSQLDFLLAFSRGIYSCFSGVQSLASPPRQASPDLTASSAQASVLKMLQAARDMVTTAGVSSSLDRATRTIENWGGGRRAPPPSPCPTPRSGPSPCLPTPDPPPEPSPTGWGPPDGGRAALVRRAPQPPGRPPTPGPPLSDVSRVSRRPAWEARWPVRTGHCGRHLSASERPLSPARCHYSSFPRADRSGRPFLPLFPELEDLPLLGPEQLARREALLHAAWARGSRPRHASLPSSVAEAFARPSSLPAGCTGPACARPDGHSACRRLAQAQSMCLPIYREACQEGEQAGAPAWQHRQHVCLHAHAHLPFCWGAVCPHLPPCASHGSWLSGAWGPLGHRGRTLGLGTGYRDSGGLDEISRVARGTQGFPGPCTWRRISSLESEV

[11] = Drug concentration in Sprague-Dawley rat brain at 10 mg/kg, po measured after 1 hrs by LC-MS/MS analysis; type: ADME, organism-based; conditions: read-out: Ct
[12] = target: Glutamate receptor ionotropic, NMDA 2D (Homo sapiens, UniProt O15399+Q05586); experiment: Positive allosteric modulator activity at GluN2D NMDA receptor (unknown origin) expressed in CHO cells co-expressing GluN1a in the presence of L-glutamate and glycine by Ca2+ influx assay; type: cell-based
Glutamate receptor ionotropic, NMDA 2D, sequence (O15399 whole entry, one chain of several): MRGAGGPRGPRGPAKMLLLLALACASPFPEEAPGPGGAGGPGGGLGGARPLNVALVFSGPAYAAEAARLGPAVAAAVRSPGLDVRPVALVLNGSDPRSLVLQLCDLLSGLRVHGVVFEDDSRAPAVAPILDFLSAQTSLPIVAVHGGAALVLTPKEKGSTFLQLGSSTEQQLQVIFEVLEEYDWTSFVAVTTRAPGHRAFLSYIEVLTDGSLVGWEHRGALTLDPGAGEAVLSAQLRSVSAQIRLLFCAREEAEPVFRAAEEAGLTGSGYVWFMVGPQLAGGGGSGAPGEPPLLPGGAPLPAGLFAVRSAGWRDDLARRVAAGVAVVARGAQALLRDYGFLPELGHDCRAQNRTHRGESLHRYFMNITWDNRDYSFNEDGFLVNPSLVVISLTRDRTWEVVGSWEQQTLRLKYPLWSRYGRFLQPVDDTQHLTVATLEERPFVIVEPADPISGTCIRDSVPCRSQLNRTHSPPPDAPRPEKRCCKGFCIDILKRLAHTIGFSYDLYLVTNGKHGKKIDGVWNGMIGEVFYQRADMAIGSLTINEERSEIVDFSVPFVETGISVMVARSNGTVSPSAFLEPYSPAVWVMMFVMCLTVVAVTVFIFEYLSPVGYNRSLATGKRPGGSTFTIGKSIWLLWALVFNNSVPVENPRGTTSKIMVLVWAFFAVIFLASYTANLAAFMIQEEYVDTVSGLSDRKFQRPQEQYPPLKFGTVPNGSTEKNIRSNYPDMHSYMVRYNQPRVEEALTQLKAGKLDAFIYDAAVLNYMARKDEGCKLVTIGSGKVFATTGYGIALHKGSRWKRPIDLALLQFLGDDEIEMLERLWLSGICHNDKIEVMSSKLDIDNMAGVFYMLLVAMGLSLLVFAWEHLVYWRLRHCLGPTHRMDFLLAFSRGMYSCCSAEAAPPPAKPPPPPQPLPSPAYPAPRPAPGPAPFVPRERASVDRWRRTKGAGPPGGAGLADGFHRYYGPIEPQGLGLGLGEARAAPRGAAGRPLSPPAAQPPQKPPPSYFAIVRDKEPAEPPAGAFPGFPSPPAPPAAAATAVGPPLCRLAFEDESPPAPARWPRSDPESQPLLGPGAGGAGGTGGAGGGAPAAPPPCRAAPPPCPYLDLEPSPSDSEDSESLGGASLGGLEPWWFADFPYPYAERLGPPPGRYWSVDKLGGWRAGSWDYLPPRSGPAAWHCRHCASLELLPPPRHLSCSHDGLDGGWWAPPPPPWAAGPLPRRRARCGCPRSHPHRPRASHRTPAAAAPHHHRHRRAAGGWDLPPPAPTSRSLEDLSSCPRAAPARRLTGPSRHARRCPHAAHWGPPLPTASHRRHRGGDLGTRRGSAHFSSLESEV

[13] = target: Glutamate receptor ionotropic, NMDA 2B (Homo sapiens, UniProt Q05586+Q13224); experiment: Positive allosteric modulator activity at GluN2B NMDA receptor (unknown origin) expressed in CHO cells co-expressing GluN1a in the presence of L-glutamate and glycine by Ca2+ influx assay; type: cell-based

| SMILES | chromatographic logD [1] | microsomal CLint at 1 µM [2] [µL/min/mg] | IC50 (Glutamate receptor 2) [µM] | microsomal CLint at 1 µM [3] [µL/min/mg] | EC50 [4] [µM] | further results |
| --- | --- | --- | --- | --- | --- | --- |
| Cc1cc(Cc2cccc(Cl)c2)cc(=O)n1C[C@H]1C[C@@H]1C#N | 2.3 | 75 | > 30 | – | – | – |
| Cc1cccc(Cc2cc(C)n(C[C@H]3C[C@@H]3C#N)c(=O)c2)c1 | 2.4 | 26 | > 30 | 15 | > 30 | – |
| Cc1cc(Cn2nc(Br)cc2Cl)cc(=O)n1C[C@H]1C[C@@H]1C#N | 1.6 | 14 | > 30 | 28 | – | concentration at 2 h [5]: 71 ng/g; concentration at 2 h [6]: 362 ng/mL; concentration at 1 h [7]: 590 ng/mL; concentration at 0.5 h [8]: 926 ng/mL; concentration at 0.5 h [9]: 262 ng/g; EC50 [10]: 1.9 µM; concentration at 1 h [11]: 111 ng/g; EC50 [12]: 5.1 µM; EC50 [13]: > 30 µM |
| CCc1cc(CN(CC)c2ccc(F)cc2)cc(=O)n1CC1CC1 | 3.6 | – | – | – | 13 | – |
| Cc1cc(Cn2nc(Cl)cc2Cl)cc(=O)n1C[C@H]1C[C@@H]1C#N | 1.6 | 22 | > 30 | 12 | – | – |
| Cc1cc(Cc2cccc(Br)c2)cc(=O)n1C[C@H]1C[C@@H]1C#N | 2.5 | 72 | > 30 | 24 | – | – |
| Cc1cc(Cn2nc(C(F)F)cc2Cl)cc(=O)n1C[C@H]1C[C@@H]1C#N | 1.4 | – | > 30 | – | – | – |
| CCN(Cc1cc(C)n(C[C@H]2C[C@@H]2C#N)c(=O)c1)c1ccc(F)cc1 | 2.4 | > 768 | 11 | 48 | – | – |
| CCN(Cc1cc(C)n(C[C@@H]2C[C@H]2C#N)c(=O)c1)c1ccc(F)cc1 | 2.4 | – | 16 | – | – | – |
| Cc1cc(Cn2nc(C(F)(F)F)cc2Cl)cc(=O)n1C[C@H]1C[C@@H]1C#N | 1.8 | 22 | 21 | 2 | – | – |
| CCCc1cc(CN(CC)c2ccc(F)cc2)cc(=O)n1CC1CC1 | 4 | – | > 30 | – | 12 | – |

More lines, in order of falling IC50 (Glutamate receptor 2), values ahead:

| chromatographic logD [1] | microsomal CLint at 1 µM [2] [µL/min/mg] | IC50 (Glutamate receptor 2) [µM] | microsomal CLint at 1 µM [3] [µL/min/mg] | EC50 [4] [µM] | SMILES | further results |
| --- | --- | --- | --- | --- | --- | --- |
| – | – | 10 | – | – | CCN(Cc1cc(C)n(C[C@@H]2C[C@H]2C#N)c(=O)c1)c1ccc(F)cc1 (racemic) | – |
| 3.2 | – | 9.9 | – | – | CCN(Cc1cc(C)n(CC2CC2)c(=O)c1)c1ccc(F)cc1 | – |
| 3.5 | – | 5.5 | – | > 30 | CCN(Cc1cc(C)n(Cc2ccccc2)c(=O)c1)c1ccc(F)cc1 | – |
| 2.4 | – | 4.3 | – | > 30 | CCN(Cc1cc(C)n(CCCC#N)c(=O)c1)c1ccc(F)cc1 | – |
| 2.9 | – | 2.3 | – | 13 | CCN(Cc1cc(=O)n(CC2CC2)c(C)n1)c1ccc(F)cc1 | – |
| 2.5 | – | 2.3 | – | > 30 | CCN(Cc1cc(C)n(CC2(C#N)CC2)c(=O)c1)c1ccc(F)cc1 | – |
| 3.6 | – | 1.2 | – | 23 | CCN(Cc1cc(C)n(CC2CCC2)c(=O)c1)c1ccc(F)cc1 | – |
| 2.8 | – | 0.75 | – | – | CCN(Cc1ccn(CC2CC2)c(=O)c1)c1ccc(F)cc1 | – |
